Test results from patent publication US20100022491A1, “4-HYDROXY-2-OXO-2,3-DIHYDRO-1,3-BENZOTHIAZOL-7YL COMPOUNDS FOR MODULATION OF B2-ADRENORECEPTOR ACTIVITY” (ASTRAZENECA AB, priority 2006, published 2010).
Structures can show the parent of a compound that is named as a salt.

What was measured:
[1] = biological target: T1, recombinant human adrenergic beta 1 receptors (Homo sapiens, UniProt P08588); experiment: Adrenergic β1 selectivity binding assay ([125I]-Iodocyanopindolol); conditions: inhibition of [125I]-Iodocyanopindolol (0.036 nM) binding; read-out: β1 bind p IC50 (converted)
T1 construct: purchased Euroscreen
Experimental: (§1) Membranes containing recombinant human adrenergic beta 1 receptors were obtained from Euroscreen. These were diluted in Assay Buffer (50 mM HEPES, 1 mM EDTA, 120 mM NaCl, 0.1% gelatin, pH 7.4) to provide a final concentration of membranes that gave a clear window between maximum and minimum specific binding.
(§2) Assays were performed in U-bottomed 96-well polypropylene plates. 10 μL [^125I]-Iodocyanopindolol (0.036 nM final concentration) and 10 μL of test compound (10× final concentration) were added to each test well. For each assay plate 8 replicates were obtained for [^125I]-Iodocyanopindolol binding in the presence of 10 μL vehicle (10% (v/v) DMSO in Assay Buffer; defining maximum binding) or 10 μL Propranolol (10 μM final concentration; defining non-specific binding (NSB)). Membranes were then added to achieve a final volume of 100 μL. The plates were incubated for 2 hours at room temperature and then filtered onto PEI coated GF/B filter plates, pre-soaked for 1 hour in Assay Buffer, using a 96-well plate Tomtec cell harvester. Five washes with 250 μL wash buffer (50 mM HEPES, 1 mM EDTA, 120 mM NaCl, pH 7.4) were performed at 4° C. to remove unbound radioactivity. The plates were dried then sealed from underneath using Packard plate sealers and MicroScint-O (50 μL) was added to each well. The plates were sealed (TopSeal A) and filter-bound radioactivity was measured with a scintillation counter (TopCount, Packard BioScience) using a 3-minute counting protocol.
(§3) Total specific binding (B0) was determined by subtracting the mean NSB from the mean maximum binding. NSB values were also subtracted from values from all other wells. […] Data was fitted to a four parameter logistic equation to determine the compound potency, which was expressed as pIC50 (negative log molar concentration inducing 50% inhibition of [^125I]-Iodocyanopindolol binding).

Adrenergic β2 = biological target: T2, Adrenergic β2 (Homo sapiens, UniProt P07550); experiment: Adrenergic β2 mediated cAMP production in H292 cells; type: cell-based; conditions: for EC50: H292 cells, cAMP by AlphaScreen, 60 minutes at room temperature, rolipram 300 μM, read-out: β2 pEC50 (converted); for β2 Int Act: Intrinsic Activity as a fraction relative to the maximum activity determined for formoterol
T2 construct: Adherent H292 cells were removed from tissue culture flasks; endogenous in cells; host or cells: H292 cells
Experimental: Adrenergic β2 mediated cAMP production
H292 cells were grown in 225 cm2 flasks incubator at 37° C., 5% CO2 in RPMI medium containing, 10% (v/v) FBS (foetal bovine serum) and 2 mM L-glutamine.
Adherent H292 cells were removed from tissue culture flasks by treatment with Accutase™ cell detachment solution for 15 minutes. Flasks were incubated for 15 minutes in a humidified incubator at 37° C., 5% CO2. Detached cells were re-suspended in RPMI media (containing 10% (v/v) FBS and 2 mM L-glutamine) at 0.05×10^6 cells per mL. 5000 cells in 100 μL were added to each well of a tissue-culture-treated 96-well plate and the cells incubated overnight in a humidified incubator at 37° C., 5% CO2. The culture media was removed and cells were washed twice with 100 μL assay buffer and replaced with 50 μL assay buffer (HBSS solution containing 10 mM HEPES pH7.4 and 5 mM glucose). Cells were rested at room temperature for 20 minutes after which time 25 μL of rolipram (1.2 mM made up in assay buffer containing 2.4% (v/v) dimethylsulphoxide) was added. Cells were incubated with rolipram for 10 minutes after which time test compounds were added and the cells were incubated for 60 minutes at room temperature. The final rolipram concentration in the assay was 300 μM and final vehicle concentration was 1.6% (v/v) dimethylsulphoxide. The reaction was stopped by removing supernatants, washing once with 100 μL assay buffer and replacing with 50 μL lysis buffer. The cell monolayer was frozen at −80° C. for 30 minutes (or overnight).
The concentration of cAMP (cyclic adenosine monophosphate) in the cell lysate was determined using AlphaScreen™ methodology. The frozen cell plate was thawed for 20 minutes on a plate shaker then 10 μL of the cell lysate was transferred to a 96-well white plate. 40 μL of mixed AlphaScreen™ detection beads pre-incubated with biotinylated cAMP, was added to each well and the plate incubated at room temperature for 10 hours in the dark. The AlphaScreen™ signal was measured using an EnVision spectrophotometer (Perkin-Elmer Inc.) with the recommended manufacturer's settings. cAMP concentrations were determined by reference to a calibration curve determined in the same experiment using standard cAMP concentrations. Concentration response curves for agonists were constructed and data was fitted to a four parameter logistic equation to determine both the pEC50 and Intrinsic Activity. Intrinsic Activity was expressed as a fraction relative to the maximum activity determined for formoterol in each experiment.

[2] = biological target: T3, recombinant human α1D receptor (Homo sapiens, UniProt P25100); experiment: Adrenergic α1D selectivity binding assay ([3H]-prazosin); conditions: inhibition of [3H]-prazosin (0.3 nM) binding, HEK293 membranes; read-out: α1 bind pIC50 (converted)
T3 construct: expressed in transfected cells; host or cells: HEK293
T3 sequence (P25100 1-572): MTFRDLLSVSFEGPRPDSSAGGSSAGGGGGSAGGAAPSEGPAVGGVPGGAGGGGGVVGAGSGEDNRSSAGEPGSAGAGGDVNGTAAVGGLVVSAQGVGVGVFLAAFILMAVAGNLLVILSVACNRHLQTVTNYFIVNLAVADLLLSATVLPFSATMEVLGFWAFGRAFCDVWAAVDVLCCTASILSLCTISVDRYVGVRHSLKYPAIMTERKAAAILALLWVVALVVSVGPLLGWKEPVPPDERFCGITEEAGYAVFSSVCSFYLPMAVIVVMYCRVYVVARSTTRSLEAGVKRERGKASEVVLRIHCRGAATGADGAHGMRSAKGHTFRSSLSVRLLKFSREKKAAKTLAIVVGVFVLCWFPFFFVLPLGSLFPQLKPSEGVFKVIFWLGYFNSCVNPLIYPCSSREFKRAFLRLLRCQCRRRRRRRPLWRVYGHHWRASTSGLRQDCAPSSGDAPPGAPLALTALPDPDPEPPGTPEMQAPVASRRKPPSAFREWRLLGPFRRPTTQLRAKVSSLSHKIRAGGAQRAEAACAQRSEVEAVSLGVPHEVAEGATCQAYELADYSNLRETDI
Experimental: Membranes were prepared from human embryonic kidney 293 (HEK293) cells expressing recombinant human α1D receptor. These were diluted in Assay Buffer (50 mM HEPES, 1 mM EDTA, 0.1% gelatin, pH 7.4) to provide a final concentration of membranes that gave a clear window between maximum and minimum specific binding.
as §2, with “[^3H]-prazosin (0.3” for “[^125I]-Iodocyanopindolol (0.036”, “[^3H]-prazosin” for “[^125I]-Iodocyanopindolol”, “BMY7378” for “Propranolol”, “EDTA,” for “EDTA, 120 mM NaCl,”
as §3, with “[^3H]-prazosin” for “[^125I]-Iodocyanopindolol”

[3] = biological target: T4, recombinant human Dopamine Subtype D2s receptors (Homo sapiens, UniProt P14416); experiment: Dopamine D2 selectivity binding assay ([3H]-spiperone); conditions: inhibition of [3H]-spiperone (0.16 nM) binding; read-out: D2 bind pIC50 (converted)
T4 construct: purchased Perkin Elmer
Experimental: as §1, with “Dopamine Subtype D2s” for “adrenergic beta 1”, “Perkin Elmer.” for “Euroscreen.”
Assays were performed in U-bottomed 96-well polypropylene plates. 30 μL [^3H]-spiperone (0.16 nM final concentration) and 30 μL of test compound (10× final concentration) were added to each test well. For each assay plate 8 replicates were obtained for [^3H]-spiperone binding in the presence of 30 μL vehicle (10% (v/v) DMSO in Assay Buffer; defining maximum binding) or 30 μL Haloperidol (10 μM final concentration; defining non-specific binding (NSB)). Membranes were then added to achieve a final volume of 300 μL. The plates were incubated for 2 hours at room temperature and then filtered onto PEI coated GF/B filter plates, pre-soaked for 1 hour in Assay Buffer, using a 96-well plate Tomtec cell harvester. Five washes with 250 μL wash buffer (50 mM HEPES, 1 mM EDTA, 120 mM NaCl, pH 7.4) were performed at 4° C. to remove unbound radioactivity. The plates were dried then sealed from underneath using Packard plate sealers and MicroScint-O (50 μL) was added to each well. The plates were sealed (TopSeal A) and filter-bound radioactivity was measured with a scintillation counter (TopCount, Packard BioScience) using a 3-minute counting protocol.
as §3, with “[^3H]-spiperone” for “[^125I]-Iodocyanopindolol”

T2 sequence (P07550 whole entry): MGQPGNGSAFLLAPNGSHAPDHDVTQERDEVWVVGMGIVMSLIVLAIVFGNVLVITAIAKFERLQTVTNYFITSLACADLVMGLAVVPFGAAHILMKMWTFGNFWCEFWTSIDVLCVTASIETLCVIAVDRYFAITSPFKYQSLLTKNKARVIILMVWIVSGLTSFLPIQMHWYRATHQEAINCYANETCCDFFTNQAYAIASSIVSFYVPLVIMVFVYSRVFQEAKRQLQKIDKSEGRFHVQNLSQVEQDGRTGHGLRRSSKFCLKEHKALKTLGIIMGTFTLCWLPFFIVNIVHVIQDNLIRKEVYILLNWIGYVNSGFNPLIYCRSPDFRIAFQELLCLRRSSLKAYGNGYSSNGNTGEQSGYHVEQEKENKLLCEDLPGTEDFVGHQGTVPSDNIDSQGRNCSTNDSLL
T4 sequence (P14416 1-414 isoform P14416-2): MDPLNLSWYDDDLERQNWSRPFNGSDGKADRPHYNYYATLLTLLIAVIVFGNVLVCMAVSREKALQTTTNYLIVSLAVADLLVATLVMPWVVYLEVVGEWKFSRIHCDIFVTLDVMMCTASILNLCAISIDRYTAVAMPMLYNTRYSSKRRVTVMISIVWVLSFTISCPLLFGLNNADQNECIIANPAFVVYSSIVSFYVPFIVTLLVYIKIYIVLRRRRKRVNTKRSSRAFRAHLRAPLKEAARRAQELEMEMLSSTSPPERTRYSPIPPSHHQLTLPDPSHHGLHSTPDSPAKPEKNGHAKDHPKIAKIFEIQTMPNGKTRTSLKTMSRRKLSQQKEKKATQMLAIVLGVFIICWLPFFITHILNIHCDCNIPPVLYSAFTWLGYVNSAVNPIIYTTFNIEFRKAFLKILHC
T1 sequence (P08588 whole entry): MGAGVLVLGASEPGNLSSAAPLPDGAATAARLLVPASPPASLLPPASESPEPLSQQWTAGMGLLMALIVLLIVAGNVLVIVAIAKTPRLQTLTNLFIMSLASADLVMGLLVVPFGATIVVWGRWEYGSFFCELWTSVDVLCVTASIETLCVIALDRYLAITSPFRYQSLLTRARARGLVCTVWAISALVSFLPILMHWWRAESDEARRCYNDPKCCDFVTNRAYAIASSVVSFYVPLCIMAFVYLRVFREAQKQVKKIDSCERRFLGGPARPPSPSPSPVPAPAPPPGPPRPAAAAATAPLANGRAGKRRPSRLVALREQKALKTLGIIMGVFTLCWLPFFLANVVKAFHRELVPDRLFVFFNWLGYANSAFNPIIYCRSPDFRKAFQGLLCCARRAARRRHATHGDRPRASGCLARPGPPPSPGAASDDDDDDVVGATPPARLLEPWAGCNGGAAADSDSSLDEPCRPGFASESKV

SMILES	IC50 [1] [nM]	EC50 (Adrenergic β2) [nM]	β2 Int Act (Adrenergic β2)	IC50 [2] [nM]	IC50 [3] [nM]
O=C(CCNCCc1ccc(Cl)c(Cl)c1)N(CCNCCc1ccc(O)c2[nH]c(=O)sc12)C1CCC(F)(F)CC1 [Example 49, N^3-[2-(3,4-Dichlorophenyl)ethyl]-N^1-(4,4-difluorocyclohexyl)-N^1-(2-{[2-(4-hydroxy-2-oxo-2,3-dihydro-1,3-benzothiazol-7-yl)ethyl]amino}ethyl)-β-alaninamide bis-trifluoroacetic acid salt]	1580	7.94	0.59	631	
CC(=O)OCC(C)(C)CN(CCNCCc1ccc(O)c2[nH]c(=O)sc12)C(=O)CCNCCc1ccc(Cl)cc1 [Example 39, 3-[{N-[2-(4-Chlorophenyl)ethyl]-β-alanyl}(2-{[2-(4-hydroxy-2-oxo-2,3-dihydro-1,3-benzothiazol-7-yl)ethyl]amino}ethyl)amino]-2,2-dimethylpropyl acetate diacetic acid salt]		251	0.58	631	1260
COc1cccc(CCNCCC(=O)N(CCNCCc2ccc(O)c3[nH]c(=O)sc23)C2CCCCC2)c1 [Example 70, N^1-Cyclohexyl-N^1-(2-{[2-(4-hydroxy-2-oxo-2,3-dihydro-1,3-benzothiazol-7-yl)ethyl]amino}ethyl)-N^3-[2-(3-methoxyphenyl)ethyl]-β-alaninamide bis-trifluoroacetic acid salt]		5.01	0.84	126	200
